Measurements published in paper PMC13237374 (Communications Chemistry, 2026).

What was measured:
Assay type in all cases: physicochemical
[1] = Unseeded ThT aggregation kinetics of medin monomer; conditions: for Primary nucleation order nc, fit result: unseeded assay fitted individually
Method: After removing outliers manually, the resultant data from kinetic assays were normalized and analyzed using the online platform AmyloFit 2.0[46] made for global aggregation kinetic data-fitting. […] Half-times of unseeded aggregation assays were calculated in the AmyloFit 2.0 platform. For comparison of aggregation half-times of unseeded and low-seeded reactions, data were normalized and fitted using GraphPad Prism 2.0 with2 y=ymin+ymax−ymin/1+t1/2/t^c where y is the normalized ThT fluorescence and c is a constant. All data were fitted with the corresponding model using 50 basin hops to ensure convergence, and the fit with the least MSE was considered the best fit. Two models were used with the consideration of the presence or absence of seeds: secondary nucleation dominated[11] and fragmentation dominated mechanisms[45]. […] The average fibril length for pre-formed aggregate seeds was assumed to be 10,000 monomers[46].

[2] = Salt (NaCl) titration of medin ThT aggregation kinetics; conditions: [Medin] 75 nM, N = 1, n = 5
Method: (§1) All assays were carried out at 37 °C in quiescent conditions at 100 µL sample volume per well in 96-well half-area non-binding plates (Corning 3881), with an aluminum film coating to minimize evaporation. […] ThT fluorescence emission at 480 nm, when excited at 440 nm, was monitored using a FLUOstar Omega plate-reader (BMG Labtech GmbH, Germany) using a cycle time of 180 s with 40 flashes per reading and 0.2 s settling time per cycle. The unseeded reactions were repeated thrice using three different batches of protein.
For salt titration experiments, 20 mM NaPi 1 M NaCl 0.2 mM EDTA pH 7.4 was diluted to the final reaction mixtures at final NaCl concentrations of 0, 40, 150, and 500 mM before incubation in replicate wells of a non-binding plate and monitoring of aggregation kinetics as described above.
(§2) After removing outliers manually, the resultant data from kinetic assays were normalized and analyzed using the online platform AmyloFit 2.0[46] made for global aggregation kinetic data-fitting. All data representations have been produced in GraphPad Prism 2.0. Half-times of unseeded aggregation assays were calculated in the AmyloFit 2.0 platform. For comparison of aggregation half-times of unseeded and low-seeded reactions, data were normalized and fitted using GraphPad Prism 2.0 with2 y=ymin+ymax−ymin/1+t1/2/t^c where y is the normalized ThT fluorescence and c is a constant. All data were fitted with the corresponding model using 50 basin hops to ensure convergence, and the fit with the least MSE was considered the best fit. Two models were used with the consideration of the presence or absence of seeds: secondary nucleation dominated[11] and fragmentation dominated mechanisms. […] The average fibril length for pre-formed aggregate seeds was assumed to be 10,000 monomers.

[3] = Dynamic light scattering (DLS) of medin
Method: Samples were withdrawn at different time intervals, and the particle size distribution was monitored at 20 °C in a Malvern Zetasizer Nano instrument (Malvern Instruments Limited, United Kingdom) at 70 µL volume (N = 3, n = 3). Two outliers were removed manually before data analysis.

[4] = High-seeded (20–50% seed:total protein) ThT aggregation assay of medin; conditions: for Elongation rate constant k+, fit result: high-seeded assay fitted individually
Method: as §1
Amyloid aggregation was monitored using 20 µM ThT in replicate wells. The overnight-grown fibrils were sonicated for 15 s at 50% duty cycle and 10% power using a microtip sonicator (Bandelin Sonopuls, Germany) to produce seeds for subsequent seeded aggregation assays.
as §2

[5] = Low-seeded (1% seed:monomer) ThT aggregation assay of medin
Method: After removing outliers manually, the resultant data from kinetic assays were normalized and analyzed using the online platform AmyloFit 2.0[46] made for global aggregation kinetic data-fitting. […] Half-times of unseeded aggregation assays were calculated in the AmyloFit 2.0 platform. For comparison of aggregation half-times of unseeded and low-seeded reactions, data were normalized and fitted using GraphPad Prism 2.0 with2 y=ymin+ymax−ymin/1+t1/2/t^c where y is the normalized ThT fluorescence and c is a constant. […]

[6] = Critical concentration of medin aggregation from ThT amplitude; conditions: half-maximal point of sigmoidal fit of ThT amplitude at 0–40 nM monomer; 20 µM ThT, pH 7.4, 37 °C, quiescent
[7] = Global kinetic fitting (AmyloFit 2.0) of unseeded, low-seeded and high-seeded medin ThT data
Method: as §2

[8] = Aβ42 ThT aggregation assay
Method: It was incubated at different concentrations in the presence of 20 μM ThT quiescently at 37 °C in 96-well half-area non-binding plates (Corning 3881), with 100 μL per well and five replicate wells per concentration. An aluminum film coating minimized evaporation. The fluorescence emission of ThT at 480 nm upon excitation at 440 nm was monitored using a FLUOstar Omega plate-reader (BMG Labtech GmbH, Germany) using a cycle time of 300 s with 40 flashes per reading and 0.2 s settling time per cycle.

[9] = unseeded assays, N = 3, fragmentation dominated, no seed
[10] = unseeded assays, N = 3, secondary nucleation dominated, no seed
[11] = secondary nucleation dominated model
[12] = global data analysis, fragmentation dominated
[13] = global data analysis, secondary nucleation dominated

medin: 50-residue peptide cleaved from lactadherin, forms aortic medial amyloid; produced recombinantly in E. coli
aggregation of 10 nM medin monomer ([1]; 10 nM monomer, over 16 h, ThT): no aggregation | lowest concentration at which amyloid fibrils form spontaneously ([1]; physiological pH and temperature, quiescent solution): 25 nM | Primary nucleation order nc, fit result ([1]; fragmentation dominated, no seed): ~ 1 | Primary nucleation order nc, fit result ([1]; secondary nucleation dominated, no seed): ~ 1 | primary nucleation reaction order nc ([1]; unseeded assay, secondary nucleation- or fragmentation-dominated spontaneous aggregation model): ~ 1 | Combined rate constant k+kn, average value [1, 9]: 7.3 M-1s-2 | Combined rate constant k+k−, average value [1, 9]: 1.7 M-1s-2 | Primary nucleation reaction order nc, average value [1, 9]: 1.4 | Combined rate constant k+k2, average value [1, 10]: 22.3 M-1s-2 | Primary nucleation reaction order nc, average value [1, 10]: ~ 1 | Secondary nucleation reaction order n2, average value [1, 10]: ~ 0 | Combined rate constant k+kn, average value ([1]; unseeded assays, biological replicates N = 3 (different batches), secondary nucleation dominated, no seed): 0.1 M-1s-2 | Mean t1/2 ([2]; [NaCl] 0 mM): 3.2 h | Mean t1/2 ([2]; [NaCl] 40 mM): 2.4 h | Mean t1/2 ([2]; [NaCl] 150 mM): 2.5 h | Mean t1/2 ([2]; [NaCl] 500 mM): 2.4 h | hydrodynamic diameter of aggregates ([3]; 10 µM medin after quiescent incubation at pH 7.4 and 37 °C, DLS): 200–3200 nm | incubation time until first traces of higher molecular weight species ([3]; 10 µM medin monomer on ice, DLS): at least 1.5 hours | hydrodynamic diameters of monomeric and initial oligomeric species ([3]; 10 µM medin, DLS at 20 °C, N = 3, n = 3): 0.4–6 nm | mean hydrodynamic diameter ([3]; purely monomeric medin, 10 µM in aggregation assay buffer, freshly eluted): 0.67 nm | elongation rate constant ([4]; as printed in the Introduction, physiological pH and temperature in vitro): ~ 10^7 s^−1 | Elongation rate constant k+, fit result ([4]; fragmentation dominated model): 5.4e+07 M⁻¹ s⁻¹ | Elongation rate constant k+, fit result [4, 11]: 5.34e+07 M⁻¹ s⁻¹ | elongation rate constant k+ ([4]; high-seeded: 187.5–500 nM monomer + 187.5 nM pre-formed fibrils (20–50% seed:total protein), pH 7.4, 37 °C, quiescent, 20 µM ThT, AmyloFit fit of first phase): 5e+07 M⁻¹ s⁻¹ | rate constant of the monomer-independent secondary pathway (k2 or k−) ([5]; 50–[…] monomer, pH 7.4, 37 °C, 20 µM ThT): 4e-08 s⁻¹ | secondary nucleation reaction order n2 [5, 11]: ~ 0 | critical concentration of medin aggregation [6]: ~ 14 nM | primary nucleation reaction order nc ([7]; global analysis of all assays): ~1 | primary nucleation rate constant kn ([7]; global analysis of unseeded, low-seeded and high-seeded data, saturated secondary nucleation (n2 = 0) or fragmentation model): 1e-08 s⁻¹ | Elongation rate constant k+, fit result [7, 12]: 9.53e+06 M⁻¹ s⁻¹ | Primary nucleation order nc, fit result [7, 12]: ~ 1 | Primary nucleation rate constant kn, fit result [7, 12]: 1.15e-08 s⁻¹ | Secondary pathway rate constant k−, fit result [7, 12]: 3.14e-07 s⁻¹ | Elongation rate constant k+, fit result [7, 13]: 9.46e+06 M⁻¹ s⁻¹ | Primary nucleation order nc, fit result [7, 13]: ~ 1 | Primary nucleation rate constant kn, fit result [7, 13]: 1.13e-08 s⁻¹ | Secondary nucleation order n2, fit result [7, 13]: ~ 0 | Secondary pathway rate constant k2, fit result [7, 13]: 3.23e-07 s⁻¹

Aβ42: human amyloid-β 42 peptide, recombinantly produced, comparator amyloid
concentrations at which no aggregation was observed within 24 hours ([8]; 20 mM NaPi 0.2 mM EDTA pH 7.4, 37 °C, quiescent, 20 µM ThT): below 117 nM | aggregation half-time t1/2 ([8]; […] Aβ42, pH 7.4, 37 °C): 1.9 h
